Data published in patent publication US6602664B2 (priority 1998, dated 2003).
Several values for one entry are separate records, joined by “and”; a condition that tells them apart may be missing. Equal entries are not always repeated. Where two headings read alike, the source gives them in different places.

Columns and labels:
Assay type in all cases: cell-based
[1] = system: drug-resistant HIV-1 in HeLa HT4-6C; assay: microbe, parasite or virus in culture; details: for EC50: Human immunodeficiency virus 1, HeLa
[2] = system: recombinant HIV-1 virus isolates
Excerpt: The aim of the study was to determine the potency of the inhibitory effect of a new generation of NRTIs on Multi Drug Resistant isolates and to compare it with their effect on wild-type HIV-1 isolates. All recombinant viruses were taken from the VIRCO repository of phenotypically and genotypically characterized virus isolates. Hirsch et al. Antiretroviral Drug Resistance Testing in Adults with HIV Infection. JAMA; 1998: 79(24) 1984-1991. See also Pauwels et al. Comprehensive HIV drug Resistance monitoring using rapid, high-throughput phenotypic and genotypic assays with correlative data analysis. Antiviral Therapy, 1998: 3: 35 Abstract 51.
Phenotypic drug susceptibility determination of recombinant virus isolates is described in Hertogs et al. A Rapid Method for Simultaneous Detection of Phentypic Resistance to Inhibitors of Protease and Reverse Transcriptase in Recombinant HIV-1 Isolates from Patients Treated with Antiretroviral Drugs. Antimicrob. Agents Chemother. 1998; 42(2): 269-276. The basic principle of the Antivirogram® technology is the construction of chimeric HIV-1 strains composed of the protease (PR) and reverse transcriptase (RT) gene sequences which are isolated and amplified from patient viral RNA. Amplicons are subsequently transfected into CD4+T cells together with a standard laboratory isogenic (HXB2) HIV-1 DNA construct from which the PR/RT gene sequences were deleted. After homologous recombination, new viruses whose diversity reflects the original population amplified from the plasma are produced at high level from these cells.
The virus infectivity (CCID50) is determined by an end-point dilution method. The titer is calculated from the degree of infection, measured by the intensity of reporter-gene signal as generated by serial dilutions of the virus shock. The chimeric (clinical isolates and wild-type reference) viruses are then analyzed for their phenotypic sensitivity (i.e. susceptibility) to the different PR and RT-inhibitors in an automated reporter gene-based assay using serial dilutions of the compound. The standardisation of the Antivirogram®n assay allows for simultaneous testing of all clinically approved drugs in one 384-well microtiter plate. The experimental drugs are included in separate plates. Each plate contains multiple replicates of mock-infected wells, virus-infection control wells and blank (medium-only) well. All plates are tested in duplicate. 50% Inhibitory concentrations are calculated based on reporter signals obtained through optical reading of 384-well plates containing serial dilutions of compounds, a normalised quantity of virus and by taking into account all relevant control wells. Approval (or not) is done according to critical ranges and settings as described in the corresponding VIRCO Standard Operating Procedure.
A more detailed description of the protocol is as follows. Samples were stored frozen. […] To confirm the genotypic pattern, genotyping (ABI-sequencing) was performed after recombination and culture of the laboratory strains by analysis of cell viability, calculation of results (dose-response curves, IC50 values), and reporting of data.

[3] = system: drug-resistant HIV-1 in MT-4; assay: microbe, parasite or virus in culture
[4] = system: drug-resistant HIV-1 in MT-2; assay: microbe, parasite or virus in culture; details: for Fold-resistance: MT-2
[5] = system: drug-resistant HIV-1 in PBMC; assay: microbe, parasite or virus in culture; details: PBMC; for EC50: Human immunodeficiency virus 1, PBMC
[6] = system: HIV-1 replication in human PBM cells; assay: microbe, parasite or virus in culture
Experimental: Cells and viruses. […] Antimicrobial Agents Chemother 1992;36(11): 2423-2431.
Cell pellets were washed, centrifuged, lysed and the proviral DNA extracted as previously described. Cytotoxicity of the compounds was determined using the Promega Cell Titer 96 dye uptake assay (Madison, Wis.) in 1-2 day PHA-stimulated PBM cells after 5 days in culture. The median effective concentration (EC50) and inhibitory concentration (IC50) were derived from the computer-generated median effect plot of the dose-effect data, as described previously.

[7] = HIV-1 (A012D:M41L?/D67N/K70R/T215F/K219Q)
[8] = clinical isolate (pre) prior to long-term ZDV monotherapy, row HIV-1 (A012D), read-out: Untreated EC50
[9] = clinical isolate HIV-1 (A012D:M41L?/D67N/K70R/T215F/K219Q), read-out: Selected Varient EC50
[10] = Human immunodeficiency virus 1, PBMC, 144 h

With Cc1cn([C@H]2C[C@H](N=[N+]=[N-])[C@@H](CO)O2)c(=O)[nH]c1=O [AZT, 3′-azido-3′-deoxythymidine] the Fold-resistance [1, 7] was 200, the Fold-resistance ([1]; HIV-1 (A018C:D67N/K70R/T215Y/K219Q)) was 400 and the Fold-resistance ([1]; HIV-1 (A036DD:M41L/D67N/K70R/T215Y)) was 800. It also gave a Fold-resistance ([1]; HIV-1 (P022C:M41L?/D67N/K70R/T215F/K219Q)) of 187, a Fold-resistance ([1]; HIV-1 (P026B:M41L?/D67N/K70R/T215Y)) of 280 and an EC50 [1, 8] of 10 nM. For the same molecule, the EC50 ([1]; clinical isolate (pre) prior to long-term ZDV monotherapy, row HIV-1 (A018C), read-out: Untreated EC50) was 10 nM, the EC50 ([1]; clinical isolate (pre) prior to long-term ZDV monotherapy, row HIV-1 (A036DD), read-out: Untreated EC50) was 7 nM and the EC50 ([1]; clinical isolate (pre) prior to long-term ZDV monotherapy, row HIV-1 (P022C), read-out: Untreated EC50) was 30 nM. It also gave an EC50 ([1]; clinical isolate (pre) prior to long-term ZDV monotherapy, row HIV-1 (P026B), read-out: Untreated EC50) of 10 nM, an EC50 [1, 9] of 2000 nM and an EC50 ([1]; clinical isolate HIV-1 (A018C:D67N/K70R/T215Y/K219Q), read-out: Selected Varient EC50) of 4000 nM. For the same molecule, the EC50 ([1]; clinical isolate HIV-1 (A036DD:M41L/D67N/K70R/T215Y), read-out: Selected Varient EC50) was 5500 nM, the EC50 ([1]; clinical isolate HIV-1 (P022C:M41L?/D67N/K70R/T215F/K219Q), read-out: Selected Varient EC50) was 5600 nM and the EC50 ([1]; clinical isolate HIV-1 (P026B:M41L?/D67N/K70R/T215Y), read-out: Selected Varient EC50) was 2800 nM. For the same molecule, the “fold Resistance” value ([2]; RT genotype D67D/N, K70R, M184V, G333E) was 0.9, the “fold Resistance” value ([2]; RT genotype D67N, K70R, K219Q/K, 181C/Y) was 12 and the “fold Resistance” value ([2]; RT genotype K70R, K219Q) was 5. The “fold Resistance” value ([2]; RT genotype M41L, D67N, K70R, K103N, L210W, T215Y, K219N/K) was >36, the “fold Resistance” value ([2]; RT genotype M41L, L210L, T215Y, Y181C/Y, M184M/V) was >36 and the “fold Resistance” value ([2]; RT genotype M41L, L210W, T215Y) was 24. The “fold Resistance” value ([2]; RT genotype M41L, T69S-V-T, L210W, T215Y, G333E) was >65, the “fold Resistance” value ([2]; RT genotype M41L, T215Y, M184V) was 5.5 and the “fold Resistance” value ([2]; RT genotype T69G, Q151M, M184V/M) was >65. For the same molecule, the “fold Resistance” value ([2]; RT genotype T69I, K70R, Q151M, M184V) was >65, the “fold Resistance” value ([2]; RT genotype T69S-E, M184I, T215Y) was >65 and the “fold Resistance” value ([2]; RT genotype T215Y) was 13.5. The “fold Resistance” value ([2]; recombinant isolate, RT genotype K70R) was 0.7, the Fold-resistance ([3]; HIV-1 (A-161)) was 60 and the Fold-resistance ([3]; HIV-1 (C-246)) was 35. The Fold-resistance ([3]; HIV-1 (G-68)) was 33, the Fold-resistance ([3]; HIV-1 (R-102)) was 60 and the Fold-resistance ([3]; HIV-1 (X-78)) was 55. For the same molecule, the EC50 ([3]; Human immunodeficiency virus 1, MT4, clinical isolate (pre) prior to long-term ZDV monotherapy, row HIV-1 (A-161), read-out: Untreated EC50) was 20 nM, the EC50 ([3]; Human immunodeficiency virus 1, MT4, clinical isolate (pre) prior to long-term ZDV monotherapy, row HIV-1 (C-246), read-out: Untreated EC50) was 20 nM and the EC50 ([3]; Human immunodeficiency virus 1, MT4, clinical isolate (pre) prior to long-term ZDV monotherapy, row HIV-1 (G-68), read-out: Untreated EC50) was 20 nM. For the same molecule, the EC50 ([3]; Human immunodeficiency virus 1, MT4, clinical isolate (pre) prior to long-term ZDV monotherapy, row HIV-1 (R-102), read-out: Untreated EC50) was 20 nM, the EC50 ([3]; Human immunodeficiency virus 1, MT4, clinical isolate (pre) prior to long-term ZDV monotherapy, row HIV-1 (X-78), read-out: Untreated EC50) was 20 nM and the EC50 ([3]; Human immunodeficiency virus 1, MT4, clinical isolate HIV-1 (A-161), long-term ZDV monotherapy, read-out: Selected Varient EC50) was 1200 nM. For the same molecule, the EC50 ([3]; Human immunodeficiency virus 1, MT4, clinical isolate HIV-1 (C-246), long-term ZDV monotherapy, read-out: Selected Varient EC50) was 700 nM, the EC50 ([3]; Human immunodeficiency virus 1, MT4, clinical isolate HIV-1 (G-68), long-term ZDV monotherapy, read-out: Selected Varient EC50) was 650 nM and the EC50 ([3]; Human immunodeficiency virus 1, MT4, clinical isolate HIV-1 (R-102), long-term ZDV monotherapy, read-out: Selected Varient EC50) was 1200 nM. The EC50 ([3]; Human immunodeficiency virus 1, MT4, clinical isolate HIV-1 (X-78), long-term ZDV monotherapy, read-out: Selected Varient EC50) was 1100 nM, the Fold-resistance ([4]; HIV-1 (D67N/K70R/M184V/T215Y/K219Q)) was 5 and the Fold-resistance ([4]; HIV-1 (D67N/K70R/T215Y/K219Q)) was 33. The Fold-resistance ([4]; HIV-1 (M41L/D67N/M184V/H208Y/L210W/R211K/L214F/T215Y)) was >550, the Fold-resistance ([4]; HlV-1 (M184V)) was 1.5 and the EC50 ([4]; Human immunodeficiency virus 1, MT2, read-out: Untreated EC50) was 6 nM. For the same molecule, the Fold-resistance ([5]; 1 (T215Y/M41L)) was 11, the Fold-resistance ([5]; (M184V/T215Y)) was 5.8 and the Fold-resistance [5, 7] was 240. It also gave a Fold-resistance ([5]; HIV-1 (D67N/K70R/T215Y/K219Q)) of 9, a Fold-resistance ([5]; HIV-1 (K65R)) of 2 and a Fold-resistance ([5]; HIV-1 (L74V)) of 0.8. The Fold-resistance ([5]; HIV-1 (M184V)) was 0.8, the Fold-resistance ([5]; HIV-1 (T215Y)) was 2.5 and the EC50 [5, 8] was 1 nM. It also gave an EC50 [5, 9] of 240 nM, an EC50 ([5]; molecular clone 1 (T215Y/M41L), read-out: Selected Varient EC50) of 42 nM and an EC50 ([5]; molecular clone (M184V/T215Y), read-out: Selected Varient EC50) of 23 nM. For the same molecule, the EC50 ([5]; molecular clone HIV-1 (D67N/K70R/T215Y/K219Q), read-out: Selected Varient EC50) was 36 nM, the EC50 ([5]; molecular clone HIV-1 (K65R), read-out: Selected Varient EC50) was 8 nM and the EC50 ([5]; molecular clone HIV-1 (L74V), read-out: Selected Varient EC50) was 3 nM. The EC50 ([5]; molecular clone HIV-1 (M184V), read-out: Selected Varient EC50) was 3 nM, the EC50 ([5]; molecular clone HIV-1 (T215Y), read-out: Selected Varient EC50) was 10 nM and the EC50 ([5]; parent strain HIV-1 (xxLAI), row 1 (T215Y/M41L), read-out: Untreated EC50) was 4 nM. The EC50 ([5]; parent strain HIV-1 (xxLAI), row (M184V/T215Y), read-out: Untreated EC50) was 4 nM, the EC50 ([5]; parent strain HIV-1 (xxLAI), row HIV-1 (D67N/K70R/T215Y/K219Q), read-out: Untreated EC50) was 4 nM and the EC50 ([5]; parent strain HIV-1 (xxLAI), row HIV-1 (K65R), read-out: Untreated EC50) was 4 nM. It also gave an EC50 ([5]; parent strain HIV-1 (xxLAI), row HIV-1 (L74V), read-out: Untreated EC50) of 4 nM, an EC50 ([5]; parent strain HIV-1 (xxLAI), row HIV-1 (M184V), read-out: Untreated EC50) of 4 nM and an EC50 ([5]; parent strain HIV-1 (xxLAI), row HIV-1 (T215Y), read-out: Untreated EC50) of 4 nM. For the same molecule, the EC90 [6] was 21 nM and 14 nM, the EC90 ([6]; Human immunodeficiency virus 1, PBMC) was 13 nM and the inhibition at 0.1 µM [6, 10] was -12.9%. It also gave an inhibition at 1 µM [6, 10] of 67.6%, an inhibition at 10 µM [6, 10] of 83.2% and an inhibition at 100 µM [6, 10] of 98.2%.
